Laboratory results from ChEMBL document CHEMBL1140573, “Potent achiral agonists of the ghrelin (growth hormone secretagogue) receptor. Part I: Lead identification” (Bioorg Med Chem Lett, 2007).
Values after ≈ are worked out from the molar mass of the structure shown. Active and inactive are the calls of the source. No cut-off for these calls is given here.

What was measured:
[1] = target: T1, Growth hormone secretagogue receptor type 1 (Homo sapiens, UniProt Q92847); test: Agonist activity at GSHR by FLIPR assay; type: functional
[2] = target: T1, Growth hormone secretagogue receptor type 1; test: Intrinsic activity at GSHR relative to human ghrelin; type: functional
[3] = target: 5-hydroxytryptamine receptor 1B (Homo sapiens, UniProt P28222); test: Binding affinity at 5HT1B receptor
[4] = target: Motilin receptor (Homo sapiens) (UniProt O43193); test: Activity at motilin GPR38 receptor
[5] = Distribution coefficient, log D at pH 7.4; type: physicochemical; settings: octanol/water
[6] = Aqueous solubility at pH 7.4; type: physicochemical
Liver microsomes [7] = test: Metabolic stability in human liver microsomes; type: ADME, Microsome
Liver microsomes [8] = test: Metabolic stability in rat liver microsomes; type: ADME, Microsome
[9] = Cmax in rat at 1 mg/kg, iv; type: ADME, organism-based; design: dose 1 mg/kg, route intravenous; settings: in vivo
[10] = Half life in rat at 1 mg/kg, iv; type: ADME, organism-based; design: dose 1 mg/kg, route intravenous; settings: in vivo
[11] = Clearance in rat blood at 1 mg/kg, iv; type: ADME, organism-based; design: dose 1 mg/kg, route intravenous; settings: in vivo
[12] = Volume of distribution in rat at 1 mg/kg, iv; type: ADME, organism-based; design: dose 1 mg/kg, route intravenous; settings: in vivo, read-out: Vdss
Rattus norvegicus = test: Increase in gastric emptying in sc dosed rat; type: functional; settings: Stomach

T1 sequence (Q92847 whole entry): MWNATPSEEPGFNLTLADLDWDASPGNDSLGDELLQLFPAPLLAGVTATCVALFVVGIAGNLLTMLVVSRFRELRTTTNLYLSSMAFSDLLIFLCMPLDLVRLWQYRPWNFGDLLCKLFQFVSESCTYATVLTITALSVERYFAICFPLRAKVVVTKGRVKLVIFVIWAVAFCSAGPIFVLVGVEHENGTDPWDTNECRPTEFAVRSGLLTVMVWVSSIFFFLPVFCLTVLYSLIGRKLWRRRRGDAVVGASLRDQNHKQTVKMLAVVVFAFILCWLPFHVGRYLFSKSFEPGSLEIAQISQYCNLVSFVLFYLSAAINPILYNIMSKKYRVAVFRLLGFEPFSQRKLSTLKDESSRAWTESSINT
Chain of 5-hydroxytryptamine receptor 1B (P28222 whole entry): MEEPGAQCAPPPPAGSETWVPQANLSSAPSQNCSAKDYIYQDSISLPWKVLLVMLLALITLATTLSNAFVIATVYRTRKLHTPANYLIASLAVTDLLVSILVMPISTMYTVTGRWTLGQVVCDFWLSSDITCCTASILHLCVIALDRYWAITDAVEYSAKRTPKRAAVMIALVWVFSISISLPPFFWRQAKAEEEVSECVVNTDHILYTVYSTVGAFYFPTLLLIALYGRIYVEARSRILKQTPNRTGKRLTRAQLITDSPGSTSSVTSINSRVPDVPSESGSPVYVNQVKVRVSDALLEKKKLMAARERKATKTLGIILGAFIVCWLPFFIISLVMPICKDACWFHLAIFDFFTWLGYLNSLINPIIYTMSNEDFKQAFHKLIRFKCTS
Chain of Motilin receptor (Homo sapiens) (O43193 whole entry): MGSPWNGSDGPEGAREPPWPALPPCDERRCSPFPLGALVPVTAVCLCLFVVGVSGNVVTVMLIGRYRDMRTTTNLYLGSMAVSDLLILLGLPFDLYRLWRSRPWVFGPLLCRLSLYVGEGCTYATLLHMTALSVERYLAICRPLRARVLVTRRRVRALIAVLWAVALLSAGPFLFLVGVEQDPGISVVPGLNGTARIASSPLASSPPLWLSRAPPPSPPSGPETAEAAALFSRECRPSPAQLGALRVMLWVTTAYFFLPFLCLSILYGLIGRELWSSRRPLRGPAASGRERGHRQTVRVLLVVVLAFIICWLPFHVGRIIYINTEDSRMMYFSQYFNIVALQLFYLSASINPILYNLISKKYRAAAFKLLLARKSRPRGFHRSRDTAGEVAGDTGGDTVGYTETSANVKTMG

| Structure (SMILES) | EC50 [1] [nM] | Intrinsic activity [2] | further results |
| --- | --- | --- | --- |
| COc1cc2c(cc1N1CCNC(C)(C)C1)N(S(=O)(=O)c1ccc(-c3ccccn3)s1)CC2 | 15.8 | 0.9 | – |
| COc1cc2c(cc1N1C[C@@H](C)N[C@@H](C)C1)N(S(=O)(=O)CCc1ccccc1Cl)CC2 | 5.01 | 0.9 | – |
| COc1cc2c(cc1N1C[C@@H](C)N[C@@H](C)C1)N(S(=O)(=O)c1cccc(-c3ccccn3)c1)CC2 | 20 | 0.9 | – |
| COc1cc2c(cc1N1C[C@@H](C)N[C@@H](C)C1)N(S(=O)(=O)Cc1cccc(I)c1)CC2 | 31.6 | 0.8 | – |
| COc1cc2c(cc1N1C[C@@H](C)N[C@@H](C)C1)N(S(=O)(=O)c1ccc(-c3ccon3)s1)CC2 | 2.51 | 0.9 | – |
| COc1cc2c(cc1N1C[C@@H](C)N[C@@H](C)C1)N(S(=O)(=O)c1ccc(-c3ccccn3)cc1)CC2 | 0.2 | 1.1 | – |
| COc1cc2c(cc1N1C[C@@H](C)NC(C)(C)C1)N(S(=O)(=O)c1ccc(-c3ccccn3)s1)CC2 | 10 | 0.8 | – |
| COc1cc2c(cc1N1C[C@@H](C)N(C)[C@@H](C)C1)N(S(=O)(=O)c1cccc(Br)c1)CC2 | 126 | 0.7 | Ki [3]: 2000 nM |

The next lines start with results.

| EC50 [1] [nM] | Intrinsic activity [2] | Structure (SMILES) | further results |
| --- | --- | --- | --- |
| 0.794 | 1 | COc1cc2c(cc1N1C[C@H](C)NC(C)(C)C1)N(S(=O)(=O)c1ccc(-c3ccccn3)s1)CC2 | – |
| 3.98 | 1 | COc1cc2c(cc1N1CCN[C@H](C)C1)N(S(=O)(=O)c1ccc(-c3ccccn3)s1)CC2 | – |
| 158 | 0.7 | CCOc1ccc(CC(=O)N2CCc3cc(OC)c(N4C[C@@H](C)N(C)[C@@H](C)C4)cc32)cc1Cl | Ki [3]: 12.6 nM |
| 63.1 | 0.8 | COc1cc2c(cc1N1CCNCC1)N(S(=O)(=O)c1ccc(-c3ccccn3)s1)CC2 | – |
| 39.8 | 0.8 | COc1cc2c(cc1N1C[C@@H](C)N(C)[C@@H](C)C1)N(S(=O)(=O)c1ccc3ccccc3c1)CC2 | – |
| 0.501 | 1 | COc1cc2c(cc1N1C[C@@H](C)N[C@@H](C)C1)N(S(=O)(=O)c1ccc3ccccc3c1)CC2 | – |
| 3.16 | 1 | COc1cc2c(cc1N1CCN[C@@H](C)C1)N(S(=O)(=O)c1ccc(-c3ccccn3)s1)CC2 | – |
| 0.158 | 0.9 | COc1cc2c(cc1N1C[C@@H](C)N[C@@H](C)C1)N(S(=O)(=O)c1ccc(-c3ccccn3)s1)CC2 | Activity [4]: inactive; logD [5]: 1.8; solubility [6]: 168 µg/mL (≈ 347 µM); Stability (Liver microsomes [7]): 4.5 mL/min/g; Stability (Liver microsomes [8]): 2.6 mL/min/g; Cmax [9]: 250 nM; half-life [10]: 2.3 h; Clearance blood [11]: 64 mL/min/kg; Vd [12]: 8.8 L/kg; ED50 (Rattus norvegicus): 0.1 mg/kg |
